Results taken from US20260232767A1, “INTERLEUKIN-23 RECEPTOR ANTAGONIST PEPTIDES FOR USE IN THE TREATMENT OF PSORIASIS” (Janssen Pharmaceutica NV, priority 2023, published 2026).

System: subjects with moderate-to-severe plaque psoriasis
Assay: PASI response, Example 1 16-week dose-ranging study
Assay type: in vivo, human
Conditions: for PASI 100% Improvement, subjects / PASI ≥75% Improvement, subjects / PASI ≥90% Improvement, subjects: Combined doses
Protocol: The Psoriasis Area and Severity Index (PASI) is a system used for assessing and grading the severity of psoriatic lesions and their response to therapy. In the PASI system, the body is divided into four regions: the head, trunk, upper extremities, and lower extremities. Each of these areas is assessed and scored separately for erythema, induration, and scaling, which are each rated on a scale of 0 to 4 and extent of involvement on a scale of 0 to 6. The PASI produces a numeric score (a “PASI score”) that can range from 0 to 72. A higher score indicates more severe disease.
This was a randomized, double-blind, placebo-controlled, dose-ranging, parallel group, multicenter, interventional study in subjects with moderate-to-severe plaque psoriasis. A target of 240 subjects were enrolled in this study with 40 subjects planned per intervention group.
Clinician-reported outcomes including Psoriasis Area and Severity Index (PASI), Body Surface Area (BSA), Investigator's Global Assessment (IGA), Nail Psoriasis Area and Severity Index (NAPSI), Fingernail Physician's Global Assessment (f-PGA), Static Physician's Global Assessment of Genitalia (s-PGA-G), Physician's Global Assessment of Hands and/or Feet (hf-PGA), and Scalp Specific Investigator Global Assessment (ss-IGA) were obtained at Week 0, 8, and 16. PASI and IGA were also obtained at Weeks 1, 2, 4, and 12, and at Week 20, four weeks after the administration of the tablets has stopped.
The primary efficacy endpoint was the proportion of participants achieving a PASI 75 response at Week 16, defined as at least a 75% reduction from baseline in PASI total score.
For the primary analysis, composite strategy (non-responder imputation) was applied to address intercurrent event #1 (Discontinuation of study intervention due to lack of efficacy or due to an AE of worsening of psoriasis) and #2 (initiation of a protocol-prohibited medication or therapy that could improve psoriasis); and treatment policy strategy (observed data) was applied to intercurrent event #3 (Discontinuation of study intervention due to other reasons). Participants with missing data after application of ICEs are also considered as non-responders.
In addition to the response analysis, pairwise comparisons of each treatment group versus the placebo group were performed for the primary endpoint of PASI 75 at Week 16. Pairwise comparisons were not adjusted for multiplicity. The Cochran-Mantel-Haenszel chi-square statistic stratified by baseline weight category (≤90 kg, >90 kg) at a 2-sided significance level of 0.05 was used (Table 2).

[1] = Week 16, trough plasma conc Q2 to <Q3
[2] = Week 16, trough plasma conc ≥Q3
[3] = Week 16, 25 mg BID, intermediate plasma concentration quartile <Q1, N=1
[4] = Week 16, 25 mg BID, intermediate plasma concentration quartile Q1 to <Q2, N=1
[5] = Week 16, 25 mg BID, intermediate plasma concentration quartile Q2 to <Q3, N=1
[6] = Week 16, 25 mg BID, intermediate plasma concentration quartile ≥Q3, N=1
[7] = Week 16, 25 mg QD, intermediate plasma concentration quartile Q1 to <Q2, N=1
[8] = Week 16, 25 mg QD, intermediate plasma concentration quartile Q2 to <Q3, N=1
[9] = Week 16, 25 mg QD, intermediate plasma concentration quartile ≥Q3, N=1
[10] = Week 16, 50 mg QD, intermediate plasma concentration quartile <Q1, N=1
[11] = Week 16, 50 mg QD, intermediate plasma concentration quartile Q1 to <Q2, N=1
[12] = Week 16, 50 mg QD, intermediate plasma concentration quartile Q2 to <Q3, N=1
[13] = Week 16, 50 mg QD, intermediate plasma concentration quartile ≥Q3, N=2
[14] = Week 16, 100 mg BID, intermediate plasma concentration quartile <Q1, N=1
[15] = Week 16, 100 mg BID, intermediate plasma concentration quartile Q1 to <Q2, N=1
[16] = Week 16, 100 mg BID, intermediate plasma concentration quartile Q2 to <Q3, N=1
[17] = Week 16, 100 mg BID, intermediate plasma concentration quartile ≥Q3, N=2
[18] = Week 16, 100 mg QD, intermediate plasma concentration quartile <Q1, N=1
[19] = Week 16, 100 mg QD, intermediate plasma concentration quartile Q1 to <Q2, N=1
[20] = Week 16, 100 mg QD, intermediate plasma concentration quartile Q2 to <Q3, N=1
[21] = Week 16, 100 mg QD, intermediate plasma concentration quartile ≥Q3, N=1
[22] = Week 16, Combined regimens, intermediate plasma concentration quartile <Q1, N=5
[23] = Week 16, Combined regimens, intermediate plasma concentration quartile Q1 to <Q2, N=5
[24] = Week 16, Combined regimens, intermediate plasma concentration quartile Q2 to <Q3, N=5
[25] = Week 16, Combined regimens, intermediate plasma concentration quartile ≥Q3, N=6

SMILES: CC(=O)NCCCC[C@@H]1NC(=O)[C@H](Cc2c[nH]c3c(C)cccc23)NC(=O)[C@H]([C@@H](C)O)NC(=O)[C@H](CC(N)=O)NC(=O)[C@@H](NC(C)=O)C(C)(C)SSC(C)(C)[C@@H](C(=O)N[C@@H](Cc2ccc(OCCN)cc2)C(=O)N[C@@H](Cc2ccc3ccccc3c2)C(=O)NC2(C(=O)N[C@@H](CCC(=O)O)C(=O)N[C@@H](CC(N)=O)C(=O)N[C@@H](Cc3cccnc3)C(=O)N(C)CC(N)=O)CCOCC2)NC1=O [IL-23 receptor antagonist peptide, Ac-[Pen]*-N-T-[W(7-Me)]-[Lys(Ac)]-[Pen]*-Phe[4-(2-aminoethoxy)]-[2-Nal]-[THP]-E-N-[3-Pal]-Sarc-NH2 (*[Pen]-[Pen]* formdisulfidebond)]
- PASI 100% Improvement, subjects [1]: 4 (15.4%)
- PASI ≥75% Improvement, subjects [1]: 14 (53.8%)
- PASI ≥90% Improvement, subjects [1]: 11 (42.3%)
- PASI 100% Improvement, subjects [2]: 9 (33.3%)
- PASI ≥75% Improvement, subjects [2]: 22 (81.5%)
- PASI ≥90% Improvement, subjects [2]: 15 (55.6%)
- PASI 100% Improvement, subjects n (%) [3]: 0
- PASI ≥75% Improvement, subjects n (%) [3]: 0
- PASI ≥90% Improvement, subjects n (%) [3]: 0
- PASI 100% Improvement, subjects n (%) [4]: 0
- PASI ≥75% Improvement, subjects n (%) [4]: 1 (100.0%)
- PASI ≥90% Improvement, subjects n (%) [4]: 0
- PASI 100% Improvement, subjects n (%) [5]: 0
- PASI ≥75% Improvement, subjects n (%) [5]: 0
- PASI ≥90% Improvement, subjects n (%) [5]: 0
- PASI 100% Improvement, subjects n (%) [6]: 0
- PASI ≥75% Improvement, subjects n (%) [6]: 1 (100.0%)
- PASI ≥90% Improvement, subjects n (%) [6]: 1 (100.0%)
- PASI 100% Improvement, subjects n (%) [7]: 0
- PASI ≥75% Improvement, subjects n (%) [7]: 0
- PASI ≥90% Improvement, subjects n (%) [7]: 0
- PASI 100% Improvement, subjects n (%) [8]: 1 (100.0%)
- PASI ≥75% Improvement, subjects n (%) [8]: 1 (100.0%)
- PASI ≥90% Improvement, subjects n (%) [8]: 1 (100.0%)
- PASI 100% Improvement, subjects n (%) [9]: 0
- PASI ≥75% Improvement, subjects n (%) [9]: 0
- PASI ≥90% Improvement, subjects n (%) [9]: 0
- PASI 100% Improvement, subjects n (%) [10]: 0
- PASI ≥75% Improvement, subjects n (%) [10]: 1 (100.0%)
- PASI ≥90% Improvement, subjects n (%) [10]: 0
- PASI 100% Improvement, subjects n (%) [11]: 1 (100.0%)
- PASI ≥75% Improvement, subjects n (%) [11]: 1 (100.0%)
- PASI ≥90% Improvement, subjects n (%) [11]: 1 (100.0%)
- PASI 100% Improvement, subjects n (%) [12]: 1 (100.0%)
- PASI ≥75% Improvement, subjects n (%) [12]: 1 (100.0%)
- PASI ≥90% Improvement, subjects n (%) [12]: 1 (100.0%)
- PASI 100% Improvement, subjects n (%) [13]: 0
- PASI ≥75% Improvement, subjects n (%) [13]: 1 (50.0%)
- PASI ≥90% Improvement, subjects n (%) [13]: 1 (50.0%)
- PASI 100% Improvement, subjects n (%) [14]: 1 (100.0%)
- PASI ≥75% Improvement, subjects n (%) [14]: 1 (100.0%)
- PASI ≥90% Improvement, subjects n (%) [14]: 1 (100.0%)
- PASI 100% Improvement, subjects n (%) [15]: 1 (100.0%)
- PASI ≥75% Improvement, subjects n (%) [15]: 1 (100.0%)
- PASI ≥90% Improvement, subjects n (%) [15]: 1 (100.0%)
- PASI 100% Improvement, subjects n (%) [16]: 0
- PASI ≥75% Improvement, subjects n (%) [16]: 1 (100.0%)
- PASI ≥90% Improvement, subjects n (%) [16]: 0
- PASI 100% Improvement, subjects n (%) [17]: 2 (100.0%)
- PASI ≥75% Improvement, subjects n (%) [17]: 2 (100.0%)
- PASI ≥90% Improvement, subjects n (%) [17]: 2 (100.0%)
- PASI 100% Improvement, subjects n (%) [18]: 1 (100.0%)
- PASI ≥75% Improvement, subjects n (%) [18]: 1 (100.0%)
- PASI ≥90% Improvement, subjects n (%) [18]: 1 (100.0%)
- PASI 100% Improvement, subjects n (%) [19]: 1 (100.0%)
- PASI ≥75% Improvement, subjects n (%) [19]: 1 (100.0%)
- PASI ≥90% Improvement, subjects n (%) [19]: 1 (100.0%)
- PASI 100% Improvement, subjects n (%) [20]: 0
- PASI ≥75% Improvement, subjects n (%) [20]: 1 (100.0%)
- PASI ≥90% Improvement, subjects n (%) [20]: 0
- PASI 100% Improvement, subjects n (%) [21]: 0
- PASI ≥75% Improvement, subjects n (%) [21]: 1 (100.0%)
- PASI ≥90% Improvement, subjects n (%) [21]: 0)
- PASI 100% Improvement, subjects n (%) [22]: 3 (60.0%)
- PASI ≥75% Improvement, subjects n (%) [22]: 4 (80.0%)
- PASI ≥90% Improvement, subjects n (%) [22]: 3 (60.0%)
- PASI 100% Improvement, subjects n (%) [23]: 2 (40.0%)
- PASI ≥75% Improvement, subjects n (%) [23]: 3 (60.0%)
- PASI ≥90% Improvement, subjects n (%) [23]: 2 (40.0%)
- PASI 100% Improvement, subjects n (%) [24]: 1 (20.0%)
- PASI ≥75% Improvement, subjects n (%) [24]: 3 (60.0%)
- PASI ≥90% Improvement, subjects n (%) [24]: 1 (20.0%)
- PASI 100% Improvement, subjects n (%) [25]: 3 (50.0%)
- PASI ≥75% Improvement, subjects n (%) [25]: 6 (100.0%)
- PASI ≥90% Improvement, subjects n (%) [25]: 5 (83.3%)
- Improvement (reduction) in PASI total score from baseline (each dose group vs placebo, Week 16): significantly greater improvement
